Activity calls are given as the source filed them. The rule behind the calls is not given here.

The first assay concerns Pseudomonas aeruginosa. The assay can be described thus: Growth inhibition of Pseudomonas aeruginosa PAO1. It is filed as functional, organism-based.
With `NS(N)(=O)=O` [SULFAMIDE], the “growth inhibition (GI)” value is “inactive”.

A further assay concerns Pseudomonas aeruginosa. The assay can be described thus: Induction of growth delay of Pseudomonas aeruginosa PAO1 assessed as growth delay time. It is filed as functional.
In the case of `NS(N)(=O)=O` [SULFAMIDE], the Time stood at 1 h.

Another assay addresses T1, Carbonic anhydrase (Pseudomonas aeruginosa (strain ATCC 15692 / PAO1 / 1C / PRS 101 / LMG12228), UniProt Q9HVB9).
T1 sequence (Q9HVB9 whole entry): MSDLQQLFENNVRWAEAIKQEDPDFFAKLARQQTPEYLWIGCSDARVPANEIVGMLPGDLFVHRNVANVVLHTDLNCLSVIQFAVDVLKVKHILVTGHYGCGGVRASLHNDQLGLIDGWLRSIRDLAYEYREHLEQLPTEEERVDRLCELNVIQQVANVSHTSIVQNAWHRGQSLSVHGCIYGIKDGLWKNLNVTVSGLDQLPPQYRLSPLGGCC
The assay can be described thus: biochemical. It is filed as cell-based, BL21-DE3.
Description: Inhibition of Pseudomonas aeruginosa PAO1 type-2 beta-carbonic anhydrase psCA3 expressed in Escherichia coli Tuner BL21 (DE3) cells pre-incubated for 15 mins at pH 8.3 and 293K by CO2 hydration reaction based colorimetric stopped-flow method
The term Ki denotes the equilibrium dissociation constant of an inhibitor or competing ligand from its target. The low end stands for a stronger hold on the target, the high end for a looser hold on the target. The molecule `O=BOB(O)OB(O)OB=O` [SODIUM TETRABORATE] displayed a Ki of 9100 µM.

`[N-]=[N+]=[N-]` [SODIUM AZIDE]: the Ki came out at 770 µM. Molecule `[O-][Cl+3]([O-])([O-])O` [SODIUM PERCHLORATE] gave a Ki of more than 100000 µM. On the same count and under the same terms, under `O=[Se](=O)(O)O` [SODIUM SELENATE] stands 23500 µM. Same read-out and setting: the value for `NS(=O)(=O)O` [SULFAMATE] was 38 µM; that for `N#CO` [SODIUM CYANATE] was 650 µM. Same read-out and setting: the value for `[Cl-].[Na+]` [SODIUM CHLORIDE] was more than 100000 µM; that for `Nc1cccc(S(N)(=O)=O)c1` was 0.032 µM. On to `O=NO` [SODIUM NITRITE], for which the affinity, expressed as Ki, was 940 µM. This Ki lies about 29000-fold higher than the previous one.

As for `S` [SODIUM HYDROSULFIDE], the inhibition constant Ki worked out at 620 µM. Still for that read-out and setting: under `O=S(=O)([O-])[O-].[Na+].[Na+]` [SODIUM SULFATE ANHYDROUS] stands more than 100000 µM.

`OB(O)c1ccccc1` [PHENYLBORONIC ACID] came in with a Ki of 8 µM. Same read-out and setting: under `[Br-].[Na+]` [SODIUM BROMIDE] stands more than 100000 µM; under `F[B-](F)(F)F.[Na+]` [SODIUM TETRAFLUOROBORATE], more than 100000 µM; under `S=C(S)S` [SODIUM CARBONOTRITHIOATE], 840 µM. Same read-out and setting: the value for `N#C[SeH]` [SODIUM SELENOCYANATE] was 680 µM. Same read-out and setting: the value for `N#C[S-].[Na+]` [THIOCYANATE SODIUM] was 610 µM; that for `O=[Te](=O)(O)O` [SODIUM TELLURATE] was 7900 µM. Molecule `O=S([O-])O.[Na+]` [SODIUM BISULFITE] registered a Ki of 7000 µM. As for `[F-].[Na+]` [SODIUM FLUORIDE], the Ki was more than 100000 µM.

In turn, `CCN(CC)C(=S)S` [DITIOCARB SODIUM] yielded an inhibition constant Ki of 330 µM.

`NS(N)(=O)=O` [SULFAMIDE] registered a Ki of 8 µM. The same measure, in the same setting: under `O=S(=O)(O)OOS(=O)(=O)O` [SODIUM PERSULFATE] stands 720 µM; under `[I-].[Na+]` [SODIUM IODIDE], more than 100000 µM; under `O=C([O-])O.[Na+]` [SODIUM BICARBONATE], 3200 µM. In turn, `O=[N+]([O-])[O-].[Na+]` [SODIUM NITRATE] returned a Ki of 14200 µM. Same read-out and setting: the value for `O=S(=O)(O)ONOS(=O)(=O)O` [SODIUM IMINODISULFATE] was 4700 µM.

In the next assay the test system is Pseudomonas aeruginosa. Kind of assay: Induction of growth defect in Pseudomonas aeruginosa PAO1 up to 1 mM. It is filed as functional, organism-based.
`NS(N)(=O)=O` [SULFAMIDE]: the outcome was Active.

The values above are taken from ChEMBL document CHEMBL3596145, “Structure and inhibition studies of a type II beta-carbonic anhydrase psCA3 from Pseudomonas aeruginosa” (Bioorg Med Chem, 2015).
